Data published in patent publication US20260042764A1, “COMPOSITIONS AND METHODS FOR INHIBITION OF KRAS” (TheRas, Inc., priority 2022, published 2026).

Columns and labels:
[1] = test system: MKN1 cells (KRAS amplification); assay: 3D Cell viability assay in MKN1 cells (Biological Example 6); assay type: cell-based; conditions: Homo sapiens, MKN-1; MKN (MKN1, KRAS amplification) spheroids, 72 hours
Outline: (§1)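 Spheroids were formed from 1000 cells/well in ultra-low attachment plates over 48 h at 37 °C in medium with 10% FBS, then exposed to a 9-point, three-fold compound dilution series (0.25% DMSO) for 72 h. Viability was read by CellTiter-Glo 3D luminescence; EC50 from four-parameter variable-slope fit.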

[2] = test system: HPAC cells (KRAS G12D); assay: Cell-based pERK HTRF assay in HPAC cells (Biological Example 5)
Outline: (§2)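 Inhibition of ERK phosphorylation is measured after cells grown in 10% FBS medium receive test compound for two hours at 37° C across nine threefold-spaced concentrations. Lysates are incubated with HTRF antibody pair for 24 h at 4° C, and EC50 is derived from the 665/620 nm signal ratio.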

[3] = test system: H358 cells (KRAS G12C); assay: 3D Cell viability assay in H358 cells (Biological Example 6); assay type: cell-based; conditions: Homo sapiens, NCI-H358; H358 (KRAS G12C) spheroids, 72 hours
Outline: as §1

[4] = test system: AsPC-1 cells (KRAS G12D); assay: 3D Cell viability assay in AsPC-1 cells (Biological Example 6); assay type: cell-based; conditions: Homo sapiens, ASPC1; AsPC-1 (KRAS G12D) spheroids, 72 hours
Outline: as §1

[5] = test system: MKN1 cells (KRAS amplification); assay: Cell-based pERK HTRF assay in MKN1 cells (Biological Example 5)
Outline: as §2

[6] = test system: SW1900 cells (KRAS G12D); assay: Cell-based pERK HTRF assay in SW1900 cells (Biological Example 5)
Outline: as §2

[7] = test system: SW1900 cells (KRAS G12D); assay: 3D Cell viability assay in SW1900 cells (Biological Example 6); assay type: cell-based; conditions: Homo sapiens; SW1990 (text: SW1900, KRAS G12D) spheroids, 72 hours
Outline: as §1

[8] = test system: H358 cells (KRAS G12C); assay: Cell-based pERK HTRF assay in H358 cells (Biological Example 5)
Description: (§3) Biological Example 5: Cell-based PERK HTRF assay in AsPC-1, SW1900, HPAC, Capan-2, RKN, H358, HCT116, KP-2, H1573, A549, MKN1, and HT1080 cells
(§4) The inhibition of ERK phosphorylation, as measured using the HTRF Advanced Phospho-ERK 1/2 (Thr202/Tyr204) Detection Assay kit (Perkin Elmer), was used to determine the effectiveness of test compounds in disrupting KRAS-driven protein/effector signaling in cells.
(§5) On day 1, cells were seeded into 96-well plates at 2.5×10^4 cells/well in 100 μL of complete growth media supplemented with 10% fetal bovine serum (FBS) and incubated at 37° C., in the presence of 5% CO2.
(§6) On day 2, cells were treated with compounds diluted in DMSO at 0.25% final DMSO concentration. Compounds were dosed in a 9-point concentration curve with three-fold dilution between concentrations. Cells were incubated in the presence of compound for two hours at 37° C. Following this treatment period, cells were harvested by aspirating the media, adding 40 μL of kit-supplied 1x lysis buffer per well, and shaking for 30 minutes at 250 rpm at room temperature.
(§7) Following cell lysis, samples were homogenized by pipetting up and down twenty times and 16 μL of cell lysate per well was transferred from the 96-well cell culture plate to two wells of a 384-well detection plate. A complete detection buffer was prepared by diluting D2 and Eu Cryptate antibodies 1:20 in kit-provided detection solution, 4 μL of complete detection buffer was then added to each well with lysate. Plates were incubated with gentle rocking for 24 hours at 4° C.
(§8) Following this incubation period, plates were centrifuged at 500×g for one minute and analyzed on a CLARIOstar plate reader. Data was imported into Microsoft Excel and the signal from the 665 nm channel was divided by the signal from the 620 nm channel. % pERK was calculated as: […]
(§9) Data was imported to the Prism software package (Graphpad) and EC50 values were calculated using the log (inhibitor) vs, response—variable slopc (Four parameters) model.

[9] = test system: HT1080 cells (NRAS); assay: 3D Cell viability assay in HT1080 cells (Biological Example 6); assay type: cell-based; conditions: Homo sapiens, HT-1080; HT1080 (NRAS) spheroids, 72 hours
Outline: as §1

[10] = test system: HPAC cells (KRAS G12D); assay: 3D Cell viability assay in HPAC cells (Biological Example 6); assay type: cell-based; conditions: Homo sapiens, HPAC, 72 h, HPAC (KRAS G12D) spheroids
Outline: as §1

[11] = test system: Capan-2 cells (KRAS G12V); assay: 3D Cell viability assay in Capan-2 cells (Biological Example 6); assay type: cell-based; conditions: Homo sapiens; Capan-2 (KRAS G12V) spheroids, 72 hours
Description: Biological Example 6: 3D Cell viability assay in AsPC-1, SW1900, HPAC, Capan-2, RKN, H358, HCT116, KP-2, H1573, A549, MKN1, and HT1080 cells
The inhibition of cellular viability as a result of test compound treatment in a spheroid assay was measured using the CellTiter-Glow 3D Cell Viability Assay (Promega).
On Day 1, 1000 cells per well were seeded in 150 μL of complete growth media supplemented with 10% fetal bovine serum (FBS) and incubated at 37° C., in the presence of 5% CO2 in 96-well ultra-low attachment microplates (Corning) for 48 hours undisturbed to allow spheroids to form.
Following spheroid formation, cells were treated with compounds diluted in DMSO at 0.25% final DMSO concentration. Compounds were dosed in a 9-point concentration curve with three-fold dilution between concentrations. Cells were incubated in the presence of compound for 72 hours at 37° C., in the presence of 5% CO2.
Following this incubation period, the kit-provided CTG reagent was allowed to equilibrate for 30 minutes at room temperature, 150 μL of equilibrated CTG reagent was added to each well, and the plate was sealed before shaking at 250 rpm for 10 minutes at room temperature to lyse the cells, 150 μL of lysate per well was transferred to a 96-well plate and luminescence was read on a CLARIOstar plate reader.
Data was imported into the Prism software package (Graphpad) and EC50 values were calculated using the log (inhibitor) vs, response—variable slope (Four parameters) model.

[12] = test system: AsPC-1 cells (KRAS G12D); assay: Cell-based pERK HTRF assay in AsPC-1 cells (Biological Example 5)
Outline: as §2

[13] = test system: Capan-2 cells (KRAS G12V); assay: Cell-based pERK HTRF assay in Capan-2 cells (Biological Example 5)
Description: as §3, §4, §5, §6, §7, §8, §9

[14] = test system: RKN cells (KRAS G12V); assay: Cell-based pERK HTRF assay in RKN cells (Biological Example 5)
Description: as §3, §4, §5, §6, §7, §8, §9

[15] = test system: RKN cells (KRAS G12V); assay: 3D Cell viability assay in RKN cells (Biological Example 6); assay type: cell-based; conditions: RKN (KRAS G12V) spheroids, 72 hours
Outline: as §1

[16] = Homo sapiens, MKN-1, MKN cells (MKN1, KRAS amplification)
[17] = Homo sapiens, SW1990, SW1990 cells (text: SW1900, KRAS G12D)
[18] = Homo sapiens, NCI-H358, H358 (KRAS G12C) cells
[19] = Homo sapiens, ASPC1, AsPC-1 (KRAS G12D) cells
[20] = Homo sapiens, Capan-2, Capan-2 (KRAS G12V) cells

IC50 [1]	IC50 ([2]; Homo sapiens, HPAC)	IC50 [3]	IC50 [4]	IC50 [5, 16]	IC50 [6, 17]	IC50 [7]	IC50 [8, 18]	IC50 [9]	IC50 [12, 19]	IC50 [13, 20]	SMILES	IC50 [10]	IC50 [11]	also measured
100 to 1000 nM	100 to 1000 nM	≤ 100 nM	≤ 100 nM	≤ 100 nM	≤ 100 nM	≤ 100 nM	≤ 100 nM	> 1000 nM	≤ 100 nM	≤ 100 nM	Cc1cc2n(n1)CCN(c1nc(OCC34CCCN3CC(F)C4)nc3c(F)c(-c4ccc(F)c5sc(N)c(C#N)c45)c(C(F)(F)F)cc13)C2 (centres unmarked) [Compound 484]	100 to 1000 nM	≤ 100 nM	–
≤ 100 nM	100 to 1000 nM	≤ 100 nM	≤ 100 nM	≤ 100 nM	≤ 100 nM	≤ 100 nM	≤ 100 nM	–	≤ 100 nM	≤ 100 nM	CCN(c1nc(OC[C@@]23CCCN2C[C@H](F)C3)nc2c(F)c(-c3ccc(F)c4sc(N)c(C#N)c34)c(C(F)(F)F)cc12)[C@H]1C[C@H]2COC(=O)N2C1 (atropisomer, axis not shown; (aS)) [Compound 518, 2-amino-4-((S)-4-(ethyl((6S,7aS)-3-oxotetrahydro-1H,3H-pyrrolo[1,2-c]oxazol-6-yl)amino)-8-fluoro-2-(((2R,7aS)-2-fluorotetrahydro-1H-pyrrolizin-7a(5H)-yl)methoxy)-6-(trifluoromethyl)quinazolin-7-yl)-7-fluorobenzo[b]thiophene-3-carbonitrile]	≤ 100 nM	≤ 100 nM	IC50 [14]: ≤ 100 nM; IC50 [15]: ≤ 100 nM
–	–	–	–	–	–	–	–	–	–	–	CCN(c1nc(OC[C@@]23CCCN2C[C@H](F)C3)nc2c(F)c(-c3ccc(F)c4sc(N)c(C#N)c34)c(C(F)(F)F)cc12)[C@H]1CCN(C(=O)C(C)C)C1 (atropisomer, axis not shown) [Compound 468]	–	–	IC50 [2]: > 1000 nM; IC50 ([5]; MKN cells (MKN1, KRAS amplification)): > 1000 nM; IC50 ([6]; SW1990 cells (text: SW1900, KRAS G12D)): > 1000 nM; IC50 ([8]; H358 (KRAS G12C) cells): > 1000 nM; IC50 ([12]; AsPC-1 (KRAS G12D) cells): > 1000 nM; IC50 ([13]; Capan-2 (KRAS G12V) cells): > 1000 nM
≤ 100 nM	100 to 1000 nM	≤ 100 nM	≤ 100 nM	≤ 100 nM	≤ 100 nM	≤ 100 nM	≤ 100 nM	> 1000 nM	≤ 100 nM	≤ 100 nM	CCN(c1nc(OC[C@@]23CCCN2C[C@H](F)C3)nc2c(F)c(-c3ccc(F)c4sc(N)c(C#N)c34)c(C(F)(F)F)cc12)[C@H]1C[C@H](C)N(C(=O)C2CC2)C1 [Compound 470]	> 1000 nM	≤ 100 nM	–
≤ 100 nM	100 to 1000 nM	≤ 100 nM	≤ 100 nM	≤ 100 nM	≤ 100 nM	≤ 100 nM	≤ 100 nM	> 1000 nM	100 to 1000 nM	≤ 100 nM	CCOC(=O)N1CC[C@H](N(CC)c2nc(OC[C@@]34CCCN3C[C@H](F)C4)nc3c(F)c(-c4ccc(F)c5sc(N)c(C#N)c45)c(C(F)(F)F)cc23)C1 [Compound 467]	> 1000 nM	≤ 100 nM	–
